Laboratory results taken from ChEMBL document CHEMBL4371007, “Biased Ligands of G Protein-Coupled Receptors (GPCRs): Structure-Functional Selectivity Relationships (SFSRs) and Therapeutic Potential” (J Med Chem, 2018).
Where a SMILES comes first, the peptide text is derived from it. Bridges are numbered along the chain shown (N, C = ends).

What was measured:
[1] = target: T1, Endothelin receptor type B (Homo sapiens) (UniProt P24530)
T1 sequence (whole entry): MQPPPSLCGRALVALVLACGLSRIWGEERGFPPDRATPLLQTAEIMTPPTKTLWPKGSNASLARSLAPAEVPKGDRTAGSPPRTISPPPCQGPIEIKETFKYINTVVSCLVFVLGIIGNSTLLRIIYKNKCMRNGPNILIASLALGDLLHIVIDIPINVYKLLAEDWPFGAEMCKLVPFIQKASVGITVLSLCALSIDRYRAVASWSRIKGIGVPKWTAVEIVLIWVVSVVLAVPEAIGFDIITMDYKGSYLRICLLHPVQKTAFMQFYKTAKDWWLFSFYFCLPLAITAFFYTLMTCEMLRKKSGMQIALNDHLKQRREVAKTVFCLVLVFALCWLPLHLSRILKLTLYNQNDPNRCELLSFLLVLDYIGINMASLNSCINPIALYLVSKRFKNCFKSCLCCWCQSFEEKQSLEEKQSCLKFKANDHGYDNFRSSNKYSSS

[2] = target: T2, Endothelin-1 receptor (Homo sapiens) (UniProt P25101)
T2 sequence (whole entry): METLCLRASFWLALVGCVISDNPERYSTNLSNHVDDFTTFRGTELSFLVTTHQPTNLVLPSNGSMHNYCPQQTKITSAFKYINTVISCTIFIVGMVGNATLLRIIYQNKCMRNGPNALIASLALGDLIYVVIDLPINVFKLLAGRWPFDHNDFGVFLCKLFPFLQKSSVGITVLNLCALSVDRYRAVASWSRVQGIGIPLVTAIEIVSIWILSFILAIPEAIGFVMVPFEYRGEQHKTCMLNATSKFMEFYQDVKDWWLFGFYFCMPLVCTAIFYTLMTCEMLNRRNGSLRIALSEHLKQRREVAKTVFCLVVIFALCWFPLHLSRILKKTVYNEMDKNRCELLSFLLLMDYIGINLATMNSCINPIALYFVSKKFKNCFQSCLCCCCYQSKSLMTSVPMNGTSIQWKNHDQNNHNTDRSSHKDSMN

[3] = target: T3, Type-1 angiotensin II receptor (Homo sapiens, UniProt P30556); test: Binding affinity to human AT1 receptor
T3 sequence (P30556 whole entry): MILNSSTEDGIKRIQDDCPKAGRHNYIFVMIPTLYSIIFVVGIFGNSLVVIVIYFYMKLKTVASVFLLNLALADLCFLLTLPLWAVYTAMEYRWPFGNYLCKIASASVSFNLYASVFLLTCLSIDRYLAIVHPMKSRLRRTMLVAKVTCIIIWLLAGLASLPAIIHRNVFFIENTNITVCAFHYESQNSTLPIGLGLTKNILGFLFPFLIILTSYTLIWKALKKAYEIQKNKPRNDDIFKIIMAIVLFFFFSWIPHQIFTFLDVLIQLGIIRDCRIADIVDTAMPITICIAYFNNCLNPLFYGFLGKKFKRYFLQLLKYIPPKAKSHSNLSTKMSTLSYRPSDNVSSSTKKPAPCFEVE

[4] = target: 5-hydroxytryptamine receptor 2B (Homo sapiens) (UniProt P41595)
[5] = target: 5-hydroxytryptamine receptor 2B (Homo sapiens) (UniProt P41595); remark: listed apart in the source
[6] = target: 5-hydroxytryptamine receptor 1B (Homo sapiens) (UniProt P28222)
[7] = target: 5-hydroxytryptamine receptor 1B (Homo sapiens) (UniProt P28222); remark: listed apart in the source
[8] = target: T4, D(2) dopamine receptor (Homo sapiens, UniProt P14416); test: Agonist activity at dopamine D2 receptor (unknown origin) assessed as increase in beta-arrestin-2 recruitment relative to control
[9] = target: T4, D(2) dopamine receptor; test: Agonist activity at dopamine D2 receptor (unknown origin) by cAMP accumulation assay relative to control; type: functional
[10] = target: T2, Endothelin-1 receptor (Homo sapiens); test: Ratio of compound agonist effect for ETA receptor (unknown origin) assessed as increase in beta-arrestin recruitment to compound agonist effect for ETA receptor (unknown origin) by saphenous vein contraction assay
[11] = target: T2, Endothelin-1 receptor (Homo sapiens); test: Agonist activity at ETA receptor (unknown origin) assessed as increase in beta-arrestin recruitment
[12] = target: T2, Endothelin-1 receptor (Homo sapiens); test: Agonist activity at ETA receptor (unknown origin) by saphenous vein contraction assay
[13] = target: T5, Adenosine receptor A1 (Homo sapiens) (UniProt P30542)
T5 sequence (whole entry): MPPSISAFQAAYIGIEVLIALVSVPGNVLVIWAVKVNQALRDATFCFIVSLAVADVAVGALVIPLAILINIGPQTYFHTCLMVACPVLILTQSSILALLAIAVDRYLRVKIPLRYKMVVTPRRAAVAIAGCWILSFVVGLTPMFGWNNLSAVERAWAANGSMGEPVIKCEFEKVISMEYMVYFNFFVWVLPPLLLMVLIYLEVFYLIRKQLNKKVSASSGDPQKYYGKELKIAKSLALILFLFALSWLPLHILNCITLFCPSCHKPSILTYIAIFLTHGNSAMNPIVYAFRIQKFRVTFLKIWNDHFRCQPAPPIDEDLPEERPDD

[14] = target: T5, Adenosine receptor A1 (Homo sapiens); test: Agonist activity at adenosine A1 receptor (unknown origin) expressed in FlpIn-CHO cells assessed as increase in ERK1/2 phosphorylation; type: cell-based
[15] = target: T6, C-X-C chemokine receptor type 3 (Homo sapiens) (UniProt P49682); test: Negative allosteric modulation activity at CXCR3 (unknown origin) expressed in HEK293 cell membranes assessed as increase in [35S]-GTPgammaS binding after 1 hr by scintillation counting assay; type: functional
T6 sequence (whole entry): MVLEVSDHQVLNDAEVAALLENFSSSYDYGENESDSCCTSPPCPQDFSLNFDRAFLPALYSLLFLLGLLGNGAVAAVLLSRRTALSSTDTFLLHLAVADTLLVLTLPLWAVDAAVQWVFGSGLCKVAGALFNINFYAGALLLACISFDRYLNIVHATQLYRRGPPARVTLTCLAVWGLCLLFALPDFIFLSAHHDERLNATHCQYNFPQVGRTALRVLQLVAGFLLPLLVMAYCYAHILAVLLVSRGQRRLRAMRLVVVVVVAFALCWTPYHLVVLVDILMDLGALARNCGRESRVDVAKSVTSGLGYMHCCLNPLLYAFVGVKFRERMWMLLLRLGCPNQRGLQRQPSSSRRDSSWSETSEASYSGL

[16] = target: T6, C-X-C chemokine receptor type 3 (Homo sapiens); test: Ratio of pKb for CXCR3 (unknown origin) expressed in HEK293 cell membranes assessed as increase in [35S]-GTPgammaS binding to pKb for prolink-tagged CXCR3 (unknown origin) expressed in HEK293 cells harboring beta-galactosidase enzyme assessed as inhibition of CXCL11-induced beta-arrestin2 recruitment; type: functional
[17] = target: T6, C-X-C chemokine receptor type 3 (Homo sapiens); test: Negative allosteric modulation activity at prolink-tagged CXCR3 (unknown origin) expressed in HEK293 cells harboring beta-galactosidase enzyme assessed as inhibition of CXCL11-induced beta-arrestin2 recruitment after 4 hrs by chemiluminescence assay; type: cell-based
[18] = target: T7, Glucagon-like peptide 1 receptor (Homo sapiens, UniProt P43220); test: Agonist activity at Rluc8 fused human GLP1 receptor expressed in HEK293 cells assessed co-expressing GFP-tagged beta-arrestin1 assessed as increase in beta-arrestin1 recruitment after 20 to 40 mins by BRET assay; type: cell-based
[19] = target: T7, Glucagon-like peptide 1 receptor; test: Agonist activity at human GLP1 receptor expressed in HEK293 cells assessed as increase in cAMP accumulation after 24 hrs by luciferase reporter gene assay; type: functional, cell-based
[20] = target: T7, Glucagon-like peptide 1 receptor; test: Agonist activity at Rluc8 fused human GLP1 receptor expressed in HEK293 cells assessed co-expressing GFP-tagged beta-arrestin2 assessed as increase in beta-arrestin2 recruitment after 20 to 40 mins by BRET assay; type: cell-based

T7 sequence (P43220 whole entry, the tested form may be a part): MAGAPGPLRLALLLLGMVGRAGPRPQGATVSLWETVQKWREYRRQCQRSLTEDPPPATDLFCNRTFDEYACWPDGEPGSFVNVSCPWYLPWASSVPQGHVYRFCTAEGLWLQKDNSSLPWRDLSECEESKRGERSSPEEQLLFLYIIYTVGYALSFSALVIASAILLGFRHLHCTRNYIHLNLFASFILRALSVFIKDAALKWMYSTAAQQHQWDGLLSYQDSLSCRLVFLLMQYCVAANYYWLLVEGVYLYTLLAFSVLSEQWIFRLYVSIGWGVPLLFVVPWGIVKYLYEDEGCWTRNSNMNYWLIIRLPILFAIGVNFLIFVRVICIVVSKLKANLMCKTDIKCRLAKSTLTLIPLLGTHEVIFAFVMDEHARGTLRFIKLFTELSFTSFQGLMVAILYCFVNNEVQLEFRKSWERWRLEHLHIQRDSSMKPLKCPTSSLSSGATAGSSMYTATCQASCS
5-hydroxytryptamine receptor 1B (Homo sapiens), sequence (P28222 whole entry): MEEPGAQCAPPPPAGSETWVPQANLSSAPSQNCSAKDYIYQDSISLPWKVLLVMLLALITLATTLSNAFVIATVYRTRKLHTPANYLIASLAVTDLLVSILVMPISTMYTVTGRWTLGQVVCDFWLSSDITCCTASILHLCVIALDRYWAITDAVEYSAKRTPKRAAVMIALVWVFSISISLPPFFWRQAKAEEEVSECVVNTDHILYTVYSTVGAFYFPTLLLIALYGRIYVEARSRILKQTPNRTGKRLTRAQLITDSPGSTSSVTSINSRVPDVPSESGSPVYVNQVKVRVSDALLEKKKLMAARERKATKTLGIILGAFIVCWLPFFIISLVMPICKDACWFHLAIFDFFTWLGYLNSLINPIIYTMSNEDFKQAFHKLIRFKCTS
T4 sequence (P14416 whole entry): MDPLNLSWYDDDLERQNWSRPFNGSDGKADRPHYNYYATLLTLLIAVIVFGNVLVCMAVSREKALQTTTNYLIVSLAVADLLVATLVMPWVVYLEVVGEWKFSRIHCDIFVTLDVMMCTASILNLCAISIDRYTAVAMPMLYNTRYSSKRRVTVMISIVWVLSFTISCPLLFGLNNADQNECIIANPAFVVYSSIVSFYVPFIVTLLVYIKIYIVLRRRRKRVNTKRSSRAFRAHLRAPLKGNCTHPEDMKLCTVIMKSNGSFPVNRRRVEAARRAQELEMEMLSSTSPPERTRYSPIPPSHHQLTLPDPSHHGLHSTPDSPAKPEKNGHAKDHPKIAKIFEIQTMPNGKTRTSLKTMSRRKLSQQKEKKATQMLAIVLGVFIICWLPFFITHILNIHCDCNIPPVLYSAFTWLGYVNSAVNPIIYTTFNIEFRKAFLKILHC
5-hydroxytryptamine receptor 2B (Homo sapiens), sequence (P41595 whole entry): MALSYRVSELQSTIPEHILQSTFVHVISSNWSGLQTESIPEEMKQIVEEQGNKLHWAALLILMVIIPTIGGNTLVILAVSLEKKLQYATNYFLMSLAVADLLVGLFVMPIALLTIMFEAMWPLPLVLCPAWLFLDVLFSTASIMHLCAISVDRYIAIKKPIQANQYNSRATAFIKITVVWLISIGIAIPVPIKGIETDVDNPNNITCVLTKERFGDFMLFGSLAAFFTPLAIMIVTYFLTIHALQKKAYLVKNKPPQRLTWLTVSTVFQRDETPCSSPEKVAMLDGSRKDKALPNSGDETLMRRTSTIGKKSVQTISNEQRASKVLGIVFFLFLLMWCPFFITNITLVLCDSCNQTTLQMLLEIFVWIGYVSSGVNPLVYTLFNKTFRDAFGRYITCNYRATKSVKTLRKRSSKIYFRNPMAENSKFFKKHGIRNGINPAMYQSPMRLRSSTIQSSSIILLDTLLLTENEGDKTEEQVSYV

Which pKb [1] does the source give for `COc1ccccc1Oc1c(NS(=O)(=O)c2ccc(C(C)(C)C)cc2)nc(-c2ncccn2)nc1OCCO` here?
The pKb was 6.15.

And the pKb [2]?
The pKb was 8.01.

How did the Kd [3] turn out when `CC[C@H](C)[C@H](NC(=O)[C@@H]1CCCN1C(=O)[C@H](Cc1cnc[nH]1)NC(=O)[C@@H](NC(=O)[C@@H](NC(=O)[C@@H](NC(=O)[C@H](CCCNC(=N)N)NC(=O)CNC)C(C)C)[C@@H](C)CC)C(C)C)C(=O)O` was run?
The Kd was 300 nM.

Which log(Tau/KA) [4] does the source give for `CN1C[C@H](C(=O)N[C@]2(C)O[C@@]3(O)[C@@H]4CCCN4C(=O)[C@H](Cc4ccccc4)N3C2=O)C=C2c3cccc4[nH]cc(c34)C[C@H]21` here?
The log(Tau/KA) was 7.05.

What about the log(Tau/KA) [5] of the same molecule?
Its log(Tau/KA) is 5.95.

And the log(Tau/KA) [6]?
Its log(Tau/KA) is 8.53.

And the log(Tau/KA) [7]?
Its log(Tau/KA) is 7.82.

With `CN(CCCCNC(=O)c1cc2ccccc2[nH]1)[C@@H]1Cc2cccc3[nH]c(=O)n(c23)C1` as the molecule, how does the Activity [8] read?
The Activity was 66%.

And the Activity [9]?
The Activity was 96%.

Which results are given for `CC[C@H](C)[C@H](NC(=O)[C@H](CC(=O)O)NC(=O)[C@H](CC(C)C)NC(=O)[C@H](Cc1cnc[nH]1)NC(=O)[C@@H]1CSSC[C@H](N)C(=O)N[C@H]([C@H](C)O)C(=O)N[C@H]2CSSC[C@H](NC(=O)[C@H](CCC(=O)O)NC(=O)[C@H](CCCCN)NC(=O)[C@H](CC(=O)O)NC(=O)[C@H](CCCCN)NC(=O)[C@H](Cc3ccc(O)cc3)NC(=O)[C@H]([C@@H](C)O)NC(=O)[C@H](Cc3ccccc3)NC2=O)C(=O)N[C@@H](C(C)C)C(=O)N[C@@H](Cc2ccc(O)cc2)C(=O)N[C@@H](Cc2ccc(O)cc2)C(=O)N1)C(=O)N[C@H](C(=O)N[C@@H](Cc1ccc(O)cc1)C(=O)O)[C@@H](C)CC`?
Ratio [10]: 4; log(Tau/KA) [11]: 7.11; log(Tau/KA) [12]: 6.8

Which results are given for `C[C@H](Cc1ccccc1)Nc1ncnc2c1ncn2[C@@H]1O[C@H](CO)[C@@H](O)[C@H]1O`?
log(Tau/KA) [13]: 8.96; log(Tau/KA) [14]: 9.5

Which pKb [15] does the source give for `CCOc1ccc(-n2c(C(C)N(CC3CCN(C)CC3)C(=O)CCCOCCCCF)nc3ncccc3c2=O)cc1` (configuration not stated) here?
Its pKb is 8.73.

And the Ratio [16]?
The Ratio was 187.

What about the pKb [17] of the same molecule?
The pKb was 6.45.

For `CC[C@H](C)[C@H](NC(=O)[C@H](Cc1ccccc1)NC(=O)[C@H](CCC(=O)O)NC(=O)[C@H]1CCC[C@@H]1NC(=O)[C@H](C)NC(=O)[C@H](C)NC(=O)[C@H](CCC(N)=O)NC(=O)[C@H]1CCC[C@@H]1NC(=O)[C@H](CCC(=O)O)NC(=O)[C@H](CC(C)C)NC(=O)[C@H](Cc1ccc(O)cc1)NC(=O)[C@H]1CCC[C@@H]1NC(=O)[C@H](CO)NC(=O)[C@@H](NC(=O)[C@H](CC(=O)O)NC(=O)[C@H](CO)NC(=O)[C@@H](NC(=O)[C@H](Cc1ccccc1)NC(=O)[C@@H](NC(=O)CNC(=O)[C@H](CCC(=O)O)NC(=O)[C@H](C)NC(=O)[C@@H](N)Cc1cnc[nH]1)[C@@H](C)O)[C@@H](C)O)C(C)C)C(=O)N[C@@H](C)C(=O)N[C@@H](Cc1c[nH]c2ccccc12)C(=O)N[C@@H](CC(C)C)C(=O)N[C@H](C(=O)N[C@@H](CCCCN)C(=O)NCC(=O)N[C@@H](CCCNC(=N)N)C(=O)NCC(N)=O)C(C)C`, which EC50 [18] is on record?
The EC50 was 20 nM.

And the EC50 [19]?
The EC50 was 1 nM.

What about the EC50 [20] of the same molecule?
The EC50 was 10 nM.

H-DRVYVHPF-OH [[Val5] - ANGIOTENSIN II] was tested. Which Kd [3] did it give?
The Kd was 1.6 nM.

Which EC50 [18] does the source give for `CC[C@H](C)[C@H](NC(=O)[C@H](Cc1ccccc1)NC(=O)[C@H](CCC(=O)O)NC(=O)[C@H]1CCC[C@@H]1NC(=O)[C@H](C)NC(=O)[C@H](C)NC(=O)[C@H](CCC(N)=O)NC(=O)[C@H]1CCC[C@@H]1NC(=O)[C@H](CCC(=O)O)NC(=O)[C@H](CC(C)C)NC(=O)[C@H](Cc1ccc(O)cc1)NC(=O)[C@H]1CCC[C@@H]1NC(=O)[C@H](CO)NC(=O)[C@@H](NC(=O)[C@H](CC(=O)O)NC(=O)[C@H](CO)NC(=O)[C@@H](NC(=O)[C@H](Cc1ccccc1)NC(=O)[C@@H](NC(=O)CNC(=O)[C@H](CCC(=O)O)NC(=O)[C@H](C)NC(=O)[C@@H](N)Cc1cnc[nH]1)[C@@H](C)O)[C@@H](C)O)C(C)C)C(=O)N[C@H]1CCC[C@@H]1C(=O)N[C@@H](Cc1c[nH]c2ccccc12)C(=O)N[C@@H](CC(C)C)C(=O)N[C@H](C(=O)N[C@@H](CCCCN)C(=O)NCC(=O)N[C@@H](CCCNC(=N)N)C(=O)NCC(N)=O)C(C)C` here?
The EC50 was 31.6 nM.

And the EC50 [19]?
Its EC50 is 3.98 nM.

What about the EC50 [20] of the same molecule?
Its EC50 is 10 nM.

What does the source list for `CC[C@H](C)[C@H](NC(=O)[C@H](CC(=O)O)NC(=O)[C@H](CC(C)C)NC(=O)[C@H](Cc1cnc[nH]1)NC(=O)[C@@H]1CSSC[C@H](N)C(=O)N[C@@H](CO)C(=O)N[C@H]2CSSC[C@H](NC(=O)[C@H](CCC(=O)O)NC(=O)[C@H](CCCCN)NC(=O)[C@H](CC(=O)O)NC(=O)[C@H](CC(C)C)NC(=O)[C@H](Cc3c[nH]c4ccccc34)NC(=O)[C@H](CO)NC(=O)[C@H](CO)NC2=O)C(=O)N[C@@H](C(C)C)C(=O)N[C@@H](Cc2ccc(O)cc2)C(=O)N[C@@H](Cc2ccccc2)C(=O)N1)C(=O)N[C@H](C(=O)N[C@@H](Cc1c[nH]c2ccccc12)C(=O)O)[C@@H](C)CC` (H-CSCSSWLDKECVYFCHLDIIW-OH; disulfide 1-15, 3-11)?
Ratio [10]: 3.1; log(Tau/KA) [11]: 8.67; log(Tau/KA) [12]: 8.26
